Results as given in US7109354B2, “Thiophene amidines, compositions thereof, and methods of treating complement-mediated diseases and conditions” (3-Dimensional Pharmaceuticals, Inc., priority 2002, dated 2006).
Counter-ions that a name gives are not always drawn.

Target: T1, Activated human C1s (Homo sapiens, UniProt P09871)
T1 construct: purchased Calbiochem (La Jolla, Calif.)
T1 sequence (P09871 438-688 limits assumed): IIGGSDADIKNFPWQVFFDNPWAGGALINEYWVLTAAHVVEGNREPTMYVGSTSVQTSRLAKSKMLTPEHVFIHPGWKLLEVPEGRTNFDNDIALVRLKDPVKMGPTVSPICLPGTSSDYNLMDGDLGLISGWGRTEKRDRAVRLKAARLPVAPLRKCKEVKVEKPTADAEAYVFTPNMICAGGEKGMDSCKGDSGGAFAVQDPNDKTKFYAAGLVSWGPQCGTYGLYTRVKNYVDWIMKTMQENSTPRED
T1 sequence (P09871 16-437 partner limits assumed): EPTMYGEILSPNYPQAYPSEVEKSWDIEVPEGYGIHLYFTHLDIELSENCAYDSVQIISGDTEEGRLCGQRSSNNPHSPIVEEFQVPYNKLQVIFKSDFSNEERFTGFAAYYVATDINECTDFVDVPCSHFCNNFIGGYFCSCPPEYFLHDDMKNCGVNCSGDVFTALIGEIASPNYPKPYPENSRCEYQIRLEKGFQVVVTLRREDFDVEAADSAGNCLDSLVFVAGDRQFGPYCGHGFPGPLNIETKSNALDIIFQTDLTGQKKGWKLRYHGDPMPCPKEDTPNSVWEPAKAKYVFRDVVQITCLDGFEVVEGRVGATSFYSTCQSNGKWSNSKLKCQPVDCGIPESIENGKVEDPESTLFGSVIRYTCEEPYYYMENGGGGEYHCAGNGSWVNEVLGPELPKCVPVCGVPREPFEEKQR
Experiment: In vitro inhibition of C1s (Ki determination, C1s-catalyzed hydrolysis of Z-Gly-Arg-S-Bzl, DTNB readout)
Type: biochemical
Conditions: substrate Z-Gly-Arg-S-Bzl 45 μM, DTNB 200 μM, C1s 2.3 nM, pH 7.5, 37° C., absorbance at 405 nm

In the case of `CSc1sc(C(=N)N)cc1S(=O)(=O)c1cc(Br)c2c(c1)ncn2Cc1cc(F)ccc1F` [Example 275, 4-[7-Bromo-1-(2,5-difluoro-benzyl)-1H-benzoimidazole-5-sulfonyl]-5-methylsulfanyl-thiophene-2-carboxamidine trifluoroacetate], the Ki is reported as 6 to 23 nM.

`CSc1sc(C(=N)N)cc1S(=O)(=O)c1cccc(-c2cccc(C(C)C)c2)c1` [Example 98, 4-(3′-isopropyl-biphenyl-3-sulfonyl)-5-methylsulfanyl-thiophene-2-carboxamidine] gave a Ki of 6 to 23 nM.

With `CSc1sc(C(=N)N)cc1S(=O)(=O)c1cccc(-c2ccc(NC(=O)[C@@H](N)CCC(=O)O)cc2C)c1` [Example 231, 4-Amino-4-[3′-(5-carbamimidoyl-2-methylsulfanyl-thiophene-3-sulfonyl)-2-methyl-biphenyl-4-ylcarbamoyl]-butyric acid bis-trifluoroacetate] the Ki was 6 to 23 nM.

Compound `CSc1sc(C(=N)N)cc1S(=O)(=O)c1cccc(-c2ccccc2O)c1` [Example 34, 4-(2′-Hydroxy-biphenyl-3-sulfonyl)-5-methylsulfanyl-thiophene-2-carboxamidine trifluoroacetate] has a Ki of 6 to 23 nM.

Work on `CSc1sc(C(=N)N)cc1S(=O)(=O)c1cccc(-c2c(C)cccc2NC(=O)CCCS(C)(=O)=O)c1` [Example 209, N-[3′-(5-Carbamimidoyl-2-methylsulfanyl-thiophene-3-sulfonyl)-6-methyl-biphenyl-2-yl]-4-methanesulfonyl-butyramide trifluoroacetate] yielded a Ki of 6 to 23 nM.

With `CSc1sc(C(=N)N)cc1S(=O)(=O)c1cccc(-c2ccoc2)c1` [Example 72, 4-(3-Furan-3-yl-benzenesulfonyl)-5-methylsulfanyl-thiophene-2-carboxamidine] the Ki was 6 to 23 nM.

Compound `COc1cccc(-c2cccc(S(=O)(=O)c3cc(C(=N)N)sc3SC)c2)c1` [Example 44, 4-(3′-Methoxy-biphenyl-3-sulfonyl)-5-methylsulfanyl-thiophene-2-carboxamidine] has a Ki of 6 to 23 nM.

For `CCOc1ccc(-c2cccc(S(=O)(=O)c3cc(C(=N)N)sc3SC)c2)cc1` [Example 88, 4-(4′-ethoxy-biphenyl-3-sulfonyl)-5-methylsulfanyl-thiophene-2-carboxamidine], the Ki was 6 to 23 nM.

`CSc1sc(C(=N)N)cc1S(=O)(=O)c1cccc(-c2cccc(C(N)=O)c2)c1` [Example 104, 3′-(5-carbamimidoyl-2-methylsulfanyl-thiophene-3-sulfonyl)-biphenyl-3-carboxylic acid amide] gave a Ki of 6 to 23 nM.

`CSc1sc(C(=N)N)cc1S(=O)(=O)c1cccc(-c2ccccc2)c1` [Example 117, 4-(Biphenyl-3-sulfonyl)-5-methylsulfanyl-thiophene-2-carboxamidine trifluoroacetate] gave a Ki of 6 to 23 nM.

In the case of `COc1cccc(S(=O)(=O)c2cc(C(=N)N)sc2SC)c1` [Example 114, 4-(3-Methoxy-benzenesulfonyl)-5-methylsulfanyl-thiophene-2-carboxamidine hydrochloride HCl], the Ki is reported as 6 to 23 nM.

`CSc1sc(C(=N)N)cc1S(=O)(=O)c1cccc(-c2cc3ccccc3o2)c1` [Example 49, 4-(3-Benzofuran-2-yl-benzenesulfonyl)-5-methylsulfanyl-thiophene-2-carboxamidine] showed a Ki of 6 to 23 nM.

Work on `CSc1sc(C(=N)N)cc1S(=O)(=O)c1cccc(-c2ccc(N(C)C)cc2)c1` [Example 86, 4-(4′-dimethylamino-biphenyl-3-sulfonyl)-5-methylsulfanyl-thiophene-2-carboxamidine] yielded a Ki of 6 to 23 nM.

With `CSc1sc(C(=N)N)cc1S(=O)(=O)c1cccc(-c2c(C)cc(NC(=N)N)cc2NC(=O)NCCCCS(C)(=O)=O)c1` [Example 184, 4-{4′-Guanidino-2′-[3-(4-methanesulfonyl-butyl)-ureido]-6′-methyl-biphenyl-3-sulfonyl}-5-methylsulfanyl-thiophene-2-carboxamidine trifluoroacetate] the Ki was 6 to 23 nM.

Compound `CSc1sc(C(=N)N)cc1S(=O)(=O)c1cccc(-c2ccc(F)cc2C)c1` [Example 219, 4-(4′-Fluoro-2′-methyl-biphenyl-3-sulfonyl)-5-methylsulfanyl-thiophene-2-carboxamidine trifluoroacetate] has a Ki of 6 to 23 nM.

For `CSc1sc(C(=N)N)cc1S(=O)(=O)c1cccc(-c2cc3ccccc3s2)c1` [Example 50, 4-(3-Benzo[b]thiophen-2-yl-benzenesulfonyl)-5-methylsulfanyl-thiophene-2-carboxamidine], the Ki was 6 to 23 nM.

For `CSc1sc(C(=N)N)cc1S(=O)(=O)c1cccc(-c2cc3[nH]cnc3cc2C)c1` [Example 30, 4-[3-(6-Methyl-3H-benzoimidazol-5-yl)-benzenesulfonyl]-5-methylsulfanyl-thiophene-2-carboxamidine bis-trifluoroacetate], the Ki was 6 to 23 nM.

`COc1cc(C)c(-c2cccc(S(=O)(=O)c3cc(C(=N)N)sc3SC)c2)c(COCC(=O)O)c1` [Example 192, [3′-(5-Carbamimidoyl-2-methylsulfanyl-thiophene-3-sulfonyl)-4-methoxy-6-methyl-biphenyl-2-ylmethoxy]-acetic acid trifluoroacetate] was tested, and the Ki was 6 to 23 nM.

`CSc1sc(C(=N)N)cc1S(=O)(=O)c1cccc(-c2c(C)cccc2NC(=O)CCCS(N)(=O)=O)c1` [Example 210, N-[3′-(5-Carbamimidoyl-2-methylsulfanyl-thiophene-3-sulfonyl)-6-methyl-biphenyl-2-yl]-4-sulfamoyl-butyramide trifluoroacetate] was tested, and the Ki was 6 to 23 nM.

`CSc1sc(C(=N)N)cc1S(=O)(=O)c1cccc(-c2cccc(C(C)=O)c2)c1` [Example 101, 4-(3′-acetyl-biphenyl-3-sulfonyl)-5-methylsulfanyl-thiophene-2-carboxamidine] gave a Ki of 6 to 23 nM.

With `CSc1sc(C(=N)N)cc1S(=O)(=O)c1cccc(-c2ccc(Cl)cc2)c1` [Example 53, 4-(4′-Chloro-biphenyl-3-sulfonyl)-5-methylsulfanyl-thiophene-2-carboxamidine] the Ki was 6 to 23 nM.

`COc1ccc(-c2cccc(S(=O)(=O)c3cc(C(=N)N)sc3SC)c2)cc1OC` [Example 43, 4-(3′,4′-Dimethoxy-biphenyl-3-sulfonyl)-5-methylsulfanyl-thiophene-2-carboxamidine] was tested, and the Ki was 6 to 23 nM.

In the case of `CSc1sc(C(=N)N)cc1S(=O)(=O)c1cccc(-c2ccccc2N)c1` [Example 107, 4-(2′-amino-biphenyl-3-sulfonyl)-5-methylsulfanyl-thiophene-2-carboxamidine], the Ki is reported as 6 to 23 nM.

Work on `CSc1sc(C(=N)N)cc1S(=O)(=O)c1cccc(-c2cc(Cl)cc(Cl)c2)c1` [Example 46, 4-(3′,5′-Dichloro-biphenyl-3-sulfonyl)-5-methylsulfanyl-thiophene-2-carboxamidine] yielded a Ki of 6 to 23 nM.

`CSc1sc(C(=N)N)cc1S(=O)(=O)c1cc(OCc2ccccc2)cc(-c2ccccc2)c1` [Example 17, 4-(5-Benzyloxy-biphenyl-3-sulfonyl)-5-methylsulfanyl-thiophene-2-carboxamidine hydrochloride] showed a Ki of 6 to 23 nM.

`CSc1sc(C(=N)N)cc1S(=O)(=O)c1cccc(-c2ccc(C(C)O)cc2)c1` (stereo not drawn) [Example 33, 4-[4′-(1-Hydroxy-ethyl)-biphenyl-3-sulfonyl]-5-methylsulfanyl-thiophene-2-carboxamidine Trifluoroacetate] was tested, and the Ki was 6 to 23 nM.

`CSc1sc(C(=N)N)cc1S(=O)(=O)c1cccc(-c2cccc3ccccc23)c1` [Example 91, 5-methylsulfanyl-4-(3-naphthalen-1-yl-benzenesulfonyl)-thiophene-2-carboxamidine] showed a Ki of 6 to 23 nM.

`CSc1sc(C(=N)N)cc1S(=O)(=O)c1cccc(-c2cccc(C(O)C(F)(F)F)c2)c1` (stereo not drawn) [Example 28, 5-Methylsulfanyl-4-[3′-(2,2,2-trifluoro-1-hydroxy-ethyl)-biphenyl-3-sulfonyl]-thiophene-2-carboxamidine trifluoroacetate] gave a Ki of 6 to 23 nM.

`CSc1sc(C(=N)N)cc1S(=O)(=O)c1cccc(-c2ccc(NC(N)=O)cc2C)c1` [Example 228, 5-Methylsulfanyl-4-(2 ′-methyl-4′-ureido-biphenyl-3-sulfonyl)-thiophene-2-carboxamidine trifluoroacetate] was tested, and the Ki was 6 to 23 nM.

`CSc1sc(C(=N)N)cc1S(=O)(=O)c1cccc(-c2cccc(C(F)(F)F)c2)c1` [Example 63, 5-Methylsulfanyl-4-(3′-trifluoromethyl-biphenyl-3-sulfonyl)-thiophene-2-carboxamidine] gave a Ki of 6 to 23 nM.

In the case of `N=C(N)c1cc(S(=O)(=O)c2cccc(-c3cccc(C=O)c3)c2)c(Br)s1` [Example 20, 5-Bromo-4-(3′-formyl-biphenyl-3-sulfonyl)-thiophene-2-carboxamidine trifluoroacetate], the Ki is reported as 6 to 23 nM.

For `CSc1sc(C(=N)N)cc1S(=O)(=O)c1cccc(-c2c(C)cc(NC(=O)NCCCS(C)(=O)=O)cc2NC(=O)NCCCS(C)(=O)=O)c1` [Example 294, 4-{4′,6′-Bis-[3-(3-methanesulfonyl-propyl)-uredo]-2′-methyl-biphenyl-3-sulfonyl}-5-methylsulfanyl-thiophene-2-carboxamidine trifluoroacetate], the Ki was 6 to 23 nM.

`CSc1sc(C(=N)N)cc1S(=O)(=O)c1cccc(-c2ccc(OC(F)(F)F)cc2)c1` [Example 55, 5-Methylsulfanyl-4-(4′-trifluoromethoxy-biphenyl-3-sulfonyl)-thiophene-2-carboxamidine] was tested, and the Ki was 6 to 23 nM.
